This is an account of results in ChEMBL document CHEMBL1149309, “Potent, selective and low-calcemic inhibitors of CYP24 hydroxylase: 24-sulfoximine analogues of the hormone 1alpha,25-dihydroxyvitamin D(3)” (J Med Chem, 2004).

The target of the first assay is T1, 1,25-dihydroxyvitamin D(3) 24-hydroxylase, mitochondrial (Homo sapiens, UniProt Q07973).
T1 sequence (Q07973 whole entry): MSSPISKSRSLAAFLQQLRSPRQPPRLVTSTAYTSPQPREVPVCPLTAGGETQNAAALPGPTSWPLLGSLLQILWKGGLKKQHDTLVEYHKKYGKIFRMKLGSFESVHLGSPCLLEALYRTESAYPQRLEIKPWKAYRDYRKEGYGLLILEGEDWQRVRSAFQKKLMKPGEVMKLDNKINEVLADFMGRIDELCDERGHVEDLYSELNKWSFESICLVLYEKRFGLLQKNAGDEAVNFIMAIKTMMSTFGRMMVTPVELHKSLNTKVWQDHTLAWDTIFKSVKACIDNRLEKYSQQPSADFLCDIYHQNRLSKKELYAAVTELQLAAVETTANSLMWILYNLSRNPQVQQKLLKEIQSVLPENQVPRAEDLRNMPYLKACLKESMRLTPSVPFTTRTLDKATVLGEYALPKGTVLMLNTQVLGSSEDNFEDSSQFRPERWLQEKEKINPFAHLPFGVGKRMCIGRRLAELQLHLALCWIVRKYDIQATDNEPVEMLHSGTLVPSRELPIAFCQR
Nature of the assay: Inhibition of human CYP24 hydroxylase expressed in V79 cells. It counts as cell-based.
Conditions: not given
Take `C=C1CC[C@H](O)C/C1=C/C=C1\CCC[C@]2(C)[C@@H]([C@H](C)CC[S+](=N)([O-])c3ccccc3)CC[C@@H]12` (stereo partly drawn): the IC50 was determined as 75 nM.
On the same count and under the same terms, under `C=C1/C(=C\C=C2/CCC[C@]3(C)[C@@H]([C@@H](C)/C=C/[S+](=N)([O-])c4ccccc4)CC[C@@H]23)C[C@@H](O)C[C@@H]1O` (stereo partly drawn) stands 549 nM; under `C=C1/C(=C\C=C2/CCC[C@]3(C)[C@@H]([C@H](C)/C=C(\F)[S+](=N)([O-])c4ccccc4)CC[C@@H]23)C[C@@H](O)C[C@@H]1O` (stereo partly drawn), more than 1000 nM; under `C=C1/C(=C\C=C2/CCC[C@]3(C)[C@@H]([C@H](C)/C=C/[S+](=N)([O-])c4ccccc4)CC[C@@H]23)C[C@@H](O)C[C@@H]1O` (stereo partly drawn), more than 1000 nM.
Take `C=C1/C(=C\C=C2/CCC[C@]3(C)[C@@H]([C@H](C)CCS(=N)(=O)c4ccccc4)CC[C@@H]23)C[C@@H](O)C[C@@H]1O` (stereo in doubt; 3a) [listing 1 of 2 here]: 7.4 nM corresponded to half-maximal inhibition (IC50).
`C[C@H](CC[S+](=N)([O-])c1ccccc1)[C@H]1CC[C@H]2/C(=C/C=C3C[C@@H](O)C[C@H](O)C3)CCC[C@]12C` (stereo in doubt; 3c) displayed an IC50 of 13 nM.
Same read-out and setting: under `C[C@H](CC[S+](=N)([O-])c1ccccc1)[C@H]1CC[C@H]2/C(=C/C=C3C[C@@H](O)C[C@H](O)C3)CCC[C@]12C` (stereo in doubt; 3d) stands 9.7 nM; under `C=C1/C(=C\C=C2/CCC[C@]3(C)[C@@H]([C@H](C)CC4([S+](=N)([O-])c5ccccc5)CC4)CC[C@@H]23)C[C@@H](O)C[C@@H]1O` (stereo in doubt; 3f), 20.5 nM.
Still for that read-out and setting: under `C=C1/C(=C\C=C2/CCC[C@]3(C)[C@@H]([C@H](C)CC4([S+](=N)([O-])c5ccccc5)CC4)CC[C@@H]23)C[C@@H](O)C[C@@H]1O` (stereo in doubt; 3g) stands 50 nM.
Still for that read-out and setting: next, `C=C1/C(=C\C=C2/CCC[C@]3(C)[C@@H]([C@H](C)CC[S+](=N)([O-])c4ccc(F)cc4)CC[C@@H]23)C[C@@H](O)C[C@@H]1O` (stereo in doubt; 3i): 44 nM.

In another assay the target is T2, 25-hydroxyvitamin D-1 alpha hydroxylase, mitochondrial (Homo sapiens, UniProt O15528).
T2 sequence (O15528 whole entry): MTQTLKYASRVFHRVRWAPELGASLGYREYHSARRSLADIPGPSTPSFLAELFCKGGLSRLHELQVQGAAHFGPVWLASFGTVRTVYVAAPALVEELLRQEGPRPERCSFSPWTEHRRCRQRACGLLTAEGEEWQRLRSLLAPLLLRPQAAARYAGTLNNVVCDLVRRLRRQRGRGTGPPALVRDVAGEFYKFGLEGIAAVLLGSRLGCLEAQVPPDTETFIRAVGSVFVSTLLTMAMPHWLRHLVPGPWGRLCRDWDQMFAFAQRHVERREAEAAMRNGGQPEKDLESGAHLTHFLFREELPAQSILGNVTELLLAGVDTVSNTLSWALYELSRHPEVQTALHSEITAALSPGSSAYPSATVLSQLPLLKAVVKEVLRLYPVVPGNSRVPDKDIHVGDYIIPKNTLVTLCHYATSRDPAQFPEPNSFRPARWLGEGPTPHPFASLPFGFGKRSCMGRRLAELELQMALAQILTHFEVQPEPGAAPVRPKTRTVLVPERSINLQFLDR
Nature of the assay: Inhibition of human CYP27B hydroxylase expressed in SW900 cells. Format: cell-based.
Conditions: not given
In turn, `C=C1/C(=C\C=C2/CCC[C@]3(C)[C@@H]([C@H](C)CCS(=N)(=O)c4ccccc4)CC[C@@H]23)C[C@@H](O)C[C@@H]1O` (stereo in doubt; 3a) [listing 1 of 2 here] registered an IC50 of 554 nM.

The target in the next assay is T3, Vitamin D3 receptor (Homo sapiens) (UniProt P11473).
T3 sequence (whole entry): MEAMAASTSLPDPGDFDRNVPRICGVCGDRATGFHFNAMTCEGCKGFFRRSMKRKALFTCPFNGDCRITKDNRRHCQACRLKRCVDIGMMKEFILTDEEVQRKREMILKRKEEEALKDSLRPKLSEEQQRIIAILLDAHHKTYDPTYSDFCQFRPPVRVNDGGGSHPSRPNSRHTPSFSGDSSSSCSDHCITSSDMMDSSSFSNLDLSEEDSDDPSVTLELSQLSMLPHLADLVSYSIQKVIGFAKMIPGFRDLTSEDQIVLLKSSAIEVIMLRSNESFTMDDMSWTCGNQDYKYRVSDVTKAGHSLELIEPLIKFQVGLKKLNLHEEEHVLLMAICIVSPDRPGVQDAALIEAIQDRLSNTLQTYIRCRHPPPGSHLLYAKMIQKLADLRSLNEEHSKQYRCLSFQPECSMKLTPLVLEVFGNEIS
To be noted: CV-1.
Description: Effect on VDR-mediated transcriptional activity in CV1 cells transfected with human recombinant VDR
Compound `C=C1/C(=C\C=C2/CCC[C@]3(C)[C@@H]([C@H](C)CCS(=N)(=O)c4ccccc4)CC[C@@H]23)C[C@@H](O)C[C@@H]1O` (stereo in doubt; 3a) [listing 2 of 2 here] showed an ED50 of more than 1000 nM.
The same measure, in the same setting: next, `C=C1/C(=C\C=C2/CCC[C@]3(C)[C@@H]([C@H](C)CCS(=N)(=O)c4ccccc4)CC[C@@H]23)C[C@@H](O)C[C@@H]1O` (stereo in doubt; 3b): more than 1000 nM.
